Assay results as given in paper PMC6333442, “Conserved allosteric pathways for activation of TRPV3 revealed through engineering vanilloid-sensitivity” (eLife, 2019).

Legend:
[1] = biological target: T1, TRPV3-6M + 5PM (Mus musculus, UniProt Q8K424, A560T/A606V/F522S/F625L/F656I/F666Y/H523E/L557M/Q580E/V587L/W521Y); assay: Two-electrode voltage clamp, TRPV3-6M + 5PM in oocytes; format: cell-based; settings: capsaicin 20 μM, ±60 mV
T1 construct: expressed in transfected cells; host or cells: Xenopus laevis oocytes
T1 sequence (Q8K424 1-791 W521Y/F522S/H523E/L557M/A560T/Q580E/V587L/A606V/F625L/F656I/F666Y): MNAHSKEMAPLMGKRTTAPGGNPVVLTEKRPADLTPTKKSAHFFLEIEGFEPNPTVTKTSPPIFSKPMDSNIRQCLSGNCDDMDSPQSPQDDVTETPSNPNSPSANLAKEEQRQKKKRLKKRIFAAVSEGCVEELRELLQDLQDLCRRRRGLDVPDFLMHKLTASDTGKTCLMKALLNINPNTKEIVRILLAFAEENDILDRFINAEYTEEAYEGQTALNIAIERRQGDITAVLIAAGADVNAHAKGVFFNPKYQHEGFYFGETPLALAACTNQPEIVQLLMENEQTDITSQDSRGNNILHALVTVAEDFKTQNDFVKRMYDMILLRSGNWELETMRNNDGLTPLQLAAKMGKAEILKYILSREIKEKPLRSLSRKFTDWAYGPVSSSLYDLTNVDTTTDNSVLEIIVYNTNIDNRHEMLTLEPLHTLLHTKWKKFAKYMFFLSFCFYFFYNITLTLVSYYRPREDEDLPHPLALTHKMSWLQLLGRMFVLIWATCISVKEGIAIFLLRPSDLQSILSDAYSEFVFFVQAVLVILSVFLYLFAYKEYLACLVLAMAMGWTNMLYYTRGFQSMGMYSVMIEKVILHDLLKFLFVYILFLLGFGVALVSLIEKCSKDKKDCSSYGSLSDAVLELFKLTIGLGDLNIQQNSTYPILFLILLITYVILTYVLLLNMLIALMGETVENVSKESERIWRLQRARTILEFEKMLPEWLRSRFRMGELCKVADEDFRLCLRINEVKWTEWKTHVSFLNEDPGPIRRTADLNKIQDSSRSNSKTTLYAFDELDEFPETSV
Description: All channel constructs were expressed in Xenopus laevis oocytes and studied using the two-electrode voltage clamp technique (TEVC) following 1–4 days of incubation after cRNA injection. The animal care and experimental procedures were performed in accordance with the Guide for the Care and Use of Laboratory Animals and were approved by the Animal Care and Use Committee of the National Institute of Neurological Disorders and Stroke (Animal protocol number 1253–17). Oocytes were removed surgically and incubated with agitation for 1 hr in a solution containing (in mM) 82.5 NaCl, 2.5 KCl, 1 MgCl2, 5 HEPES, pH 7.6 (with NaOH), and collagenase (2 mg/ml; Worthington Biochemical, Lakewood, NJ). Defolliculated oocytes were injected with cRNA for each of the constructs and incubated at 17°C in a solution containing (in mM) 96 NaCl, 2 KCl, 1 MgCl2, 1.8 CaCl2, 5 HEPES, pH 7.6 (with NaOH), and gentamicin (50 μg/ml, GIBCO-BRL, Gaithersburg, MD). Oocyte membrane voltage was controlled using an OC-725C oocyte clamp (Warner Instruments, Hamden, CT). Data were filtered at 1–3 kHz and digitized at 20 kHz using pClamp software (Molecular Devices, Sunnyvale, CA) and a Digidata 1440A digitizer (Axon Instruments). Microelectrode resistances were 0.1–1 MΩ when filled with 3 M KCl. For recording TRP channel currents, the external recording solution contained (in mM) 100 KCl, 10 HEPES, pH 7.6 (with KOH). Experiments were performed at room temperature (~22°C), except as indicated otherwise. […] Current time courses were obtained by stepping membrane voltage every 2 s from a holding potential of 0 mV to either −60 or +60 mV for 100 ms, and plotting the mean steady-state current at the end of each voltage step as a function of total recording time. I-V relations were obtained similarly, but voltage was stepped every 2 s to a different value, in 10 mV increments and starting at −60 mV.

[2] = system: TRPV3-6M/V2P (pore domain of rat TRPV2 in TRPV3-6M); assay: Two-electrode voltage clamp, TRPV3-6M/V2P chimera in oocytes; format: cell-based, mouse; settings: RR 50 µM
Description: All channel constructs were expressed in Xenopus laevis oocytes and studied using the two-electrode voltage clamp technique (TEVC) following 1–4 days of incubation after cRNA injection. The animal care and experimental procedures were performed in accordance with the Guide for the Care and Use of Laboratory Animals and were approved by the Animal Care and Use Committee of the National Institute of Neurological Disorders and Stroke (Animal protocol number 1253–17). Oocytes were removed surgically and incubated with agitation for 1 hr in a solution containing (in mM) 82.5 NaCl, 2.5 KCl, 1 MgCl2, 5 HEPES, pH 7.6 (with NaOH), and collagenase (2 mg/ml; Worthington Biochemical, Lakewood, NJ). Defolliculated oocytes were injected with cRNA for each of the constructs and incubated at 17°C in a solution containing (in mM) 96 NaCl, 2 KCl, 1 MgCl2, 1.8 CaCl2, 5 HEPES, pH 7.6 (with NaOH), and gentamicin (50 μg/ml, GIBCO-BRL, Gaithersburg, MD). Oocyte membrane voltage was controlled using an OC-725C oocyte clamp (Warner Instruments, Hamden, CT). Data were filtered at 1–3 kHz and digitized at 20 kHz using pClamp software (Molecular Devices, Sunnyvale, CA) and a Digidata 1440A digitizer (Axon Instruments). Microelectrode resistances were 0.1–1 MΩ when filled with 3 M KCl. For recording TRP channel currents, the external recording solution contained (in mM) 100 KCl, 10 HEPES, pH 7.6 (with KOH). […]
For temperature-activation experiments, calcium-activated chloride currents were minimized by using calcium-free solution containing 30 µM Caccinh-A01 and recording at negative membrane voltages. Heat stimuli were achieved by passing the external recording solution through glass capillary spirals immersed in a water bath maintained at about 70°C, and recordings were performed during constant perfusion with temperature measured using a thermistor (TA-29, Warner Instruments) located close to the cell. […] The mean I vs T relations were calculated by automatically binning each of the recordings in temperature intervals of 2°C, and averaging a single data point within each interval per cell. […]

Row | SMILES | channel activation (current response) [1] | block of RTx-activated current [2]
1 | COc1cc(CNC(=O)CCCC/C=C/C(C)C)ccc1O [capsaicin] | cannot be activated | –
2 | N.N.N.N.N.N.N.N.N.N.N.N.N.N.[Cl-].[Cl-].[Cl-].[Cl-].[Cl-].[Cl-].[O-2].[O-2].[Ru+3].[Ru+3].[Ru+4] [RR, ruthenium red] | – | readily blocked
